In ChEMBL document CHEMBL6134921, “Novel Tetrahydrobenzo[b]pyrazolo[3,4-e][1,4]diazepine Compounds as Oxytocin Receptor Agonists for Treating Autism Spectrum Disorders” (ACS Med Chem Lett, 2025) one finds EC50, IC50 and Ratio IC50/EC50 data, which are given here for six molecules.

Assay [1] has as its target T1, Oxytocin receptor (Homo sapiens, UniProt P30559).
T1 sequence (P30559 whole entry): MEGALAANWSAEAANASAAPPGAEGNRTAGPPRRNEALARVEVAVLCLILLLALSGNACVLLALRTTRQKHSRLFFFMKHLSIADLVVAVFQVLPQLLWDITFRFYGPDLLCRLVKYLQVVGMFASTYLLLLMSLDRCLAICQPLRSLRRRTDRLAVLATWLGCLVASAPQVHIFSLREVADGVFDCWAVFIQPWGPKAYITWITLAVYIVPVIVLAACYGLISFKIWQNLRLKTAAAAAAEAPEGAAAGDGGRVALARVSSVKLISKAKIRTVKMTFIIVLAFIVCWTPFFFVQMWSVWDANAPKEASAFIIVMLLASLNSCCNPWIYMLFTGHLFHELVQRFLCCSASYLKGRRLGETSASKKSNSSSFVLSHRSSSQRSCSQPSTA
As to the kind of experiment: Agonist activity at oxytocin receptor (unknown origin) expressed in CHO cells by IP-1 accumulation assay. The format is functional, cell-based.

Assay [2] deals with Vasopressin V1a receptor (Homo sapiens, UniProt P37288). Kind of assay: Antagonist activity at V1A receptor (unknown origin) by calcium signal assay. The format is functional.
A short description of assay [3]: Selectivity ratio, IC50 for antagonist activity at V1A receptor (unknown origin) to EC50 for agonist activity at oxytocin receptor (unknown origin) expressed in CHO cells. The format is cell-based.

Chain of Vasopressin V1a receptor (P37288 whole entry): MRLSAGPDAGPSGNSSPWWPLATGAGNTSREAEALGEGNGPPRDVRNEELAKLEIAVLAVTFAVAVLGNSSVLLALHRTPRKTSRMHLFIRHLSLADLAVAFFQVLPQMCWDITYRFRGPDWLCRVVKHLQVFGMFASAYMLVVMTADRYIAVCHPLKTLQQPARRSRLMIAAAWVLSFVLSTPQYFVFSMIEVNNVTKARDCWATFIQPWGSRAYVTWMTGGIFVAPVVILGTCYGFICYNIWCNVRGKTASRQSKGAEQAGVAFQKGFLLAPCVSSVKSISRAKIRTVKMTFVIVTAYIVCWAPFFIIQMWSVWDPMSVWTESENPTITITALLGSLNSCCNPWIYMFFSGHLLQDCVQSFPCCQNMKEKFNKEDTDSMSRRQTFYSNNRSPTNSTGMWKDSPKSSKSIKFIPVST

In the case of `Cc1cc(C(=O)N2Cc3cnn(C)c3Nc3ccccc32)ccc1CNC(=O)N1C[C@H](n2cc(COCCF)nn2)C[C@H]1C(=S)N(C)C`, a half-maximal response in assay [1] (EC50) required 0.55 nM.

Take `Cc1cc(C(=O)N2Cc3cnn(C)c3Nc3ccccc32)ccc1CNC(=O)N1C[C@H](n2cc(CCc3nnn[nH]3)nn2)C[C@H]1C(=S)N(C)C`: the EC50 (commonly the midpoint of the concentration-response curve) in assay [1] turned out to be 1.95 nM. Moreover, in assay [2], the IC50 (in general, the midpoint of a concentration-inhibition curve) was over 10000 nM. Also, the Ratio IC50/EC50 in assay [3] is over 5000.

Turning to `Cc1cc(C(=O)N2Cc3cnn(C)c3Nc3ccccc32)ccc1CNC(=O)N1C[C@H](n2cc(CO)nn2)C[C@H]1C(=S)N(C)C`, a half-maximal response in assay [1] (EC50) required 0.15 nM. Further, the IC50 in assay [2] is 966 nM. In addition, the Ratio IC50/EC50 in assay [3] stood at 6450.

As to `Cc1cc(C(=O)N2Cc3cnn(C)c3Nc3ccccc32)ccc1CNC(=O)N1C[C@H](n2cc(CC3NC(=O)NC3=O)nn2)C[C@H]1C(=S)N(C)C` (some centres undefined), in assay [1], the response was half-maximal at 0.26 nM (EC50). Further, the IC50 in assay [2] stood at 393 nM. Moreover, in assay [3], the Ratio IC50/EC50 was 1510.

As for `Cc1cc(C(=O)N2Cc3cnn(C)c3Nc3ccccc32)ccc1CNC(=O)N1C[C@@H](n2cc(CO)nn2)C[C@H]1C(=S)N(C)C`, it took 0.14 nM to reach a half-maximal effect in assay [1] (EC50). Moreover, in assay [2], the IC50 turned out to be 700 nM. For the same molecule, the Ratio IC50/EC50 in assay [3] is 5000.

`Cc1cc(C(=O)N2Cc3cnn(C)c3Nc3ccccc32)ccc1CNC(=O)N1C[C@H](n2cc(CF)nn2)C[C@H]1C(=S)N(C)C` returned an EC50 in assay [1] of 0.31 nM.
